Results on 15 compounds are retold here after patent US7169932B2 (priority 2001, dated 2007).

“And” between values parts separate entries of the source, which are not always exact repeats. Equal entries are not always repeated. Where two headings read alike, the source gives them in different places.

The subject of series [1] is HIV-1 NL4–3 or HIV-1 NL4–3(184V/L90M). Description: Susceptibility assay, p24 ELISA in infected MT-2 cells. Format: cell-based. Conditions: Human immunodeficiency virus 1, MT2, 72 h, read-out: EC50 or IC50 (mM). The procedure: T-cell lines, CEM-SS, and MT-2, and viruses HIV-1 RF and HIV-1 NL4–3 (pNL4–3) were obtained from the National Institutes of Health (AIDS Research and Reference Reagent Program, Bethesda, Md.).
(§1) Compounds were tested in phenotypic susceptibility assays at Virologic, Inc., (See Petropoulos C. J., Parkin N. T., Limoli K. L., Lie Y. S., Wrin T., Huang W., Tian H., Smith D., Winslow G. A., Capon D J, Whitcomb J M. 2000, “A novel phenotypic drug susceptibility assay for human immunodeficiency virus type 1,” Antimicrob Agents Chemother 44(4):920–928) or using the assay described here. MT-2 cells were infected with either HIV-1 NL4–3 or HIV-1 NL4–3(184V/L90M) and incubated in the presence of serial 0.5 log dilutions of test compounds. Three days later, culture supernatants were collected and virus production, as determined by p24 ELISA, was assayed. Percent inhibition was calculated as p24 concentration in compound-treated samples as compared to infected, compound-free controls. Inhibition of viral replication is determined by measuring reduction in HIV p24 present in the culture supernatant, using a Beckman-Coulter p24 HIV-1 Ag EIA kit and following the supplied protocol. Absorbance is read on a MRX microplate reader (Dynex Technologies). The EC50 was calculated as the concentration of compound that effected a decrease in the p24 production by infected, compound-treated cells to 50% of that produced by infected, compound-free cells.

Series [2] concerns the target T1, HIV-1 protease (Q7S) (Human immunodeficiency virus type 1 group M subtype B, UniProt P04585, Q495S).
T1 construct: made in house
Description: HIV-1 Protease RET Assay. It is filed as biochemical. The settings on record: RET assay, Q7S enzyme, pH 4.8, 37 C. A digest of the protocol:
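Ki values came from a RET assay on refolded Q7S protease (2 nM active dimer) cleaving RE(EDANS)SQNYPIVQK(DABCYL)R at 5 μM, read at ex 340/em 490 nm. Reactions ran 12 min at 37 C in 0.1M sodium acetate pH 4.8, 1M NaCl, 5 mM DTT, 10% DMSO; curves were fit with the Morrison tight-binding equation.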

In series [3] the test system is HIV-1. In words: Cytopathic Effect (CPE) Inhibition Assay (XTT dye reduction). Conditions: Human immunodeficiency virus 1, 144 h, read-out: Ave CPE EC50 (mM), protection of infected cells, six days, XTT. It is filed as cell-based. A digest of the protocol:
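CEM-SS or MT-2 cells infected with HIV-1 RF or NL4–3 (moi 0.025–0.819), 2×10^4 cells/well, incubated six days with half-log compound dilutions. Viability read by XTT formazan at 450 nm; EC50 is the concentration restoring 50% of uninfected-control formazan, CC50 from uninfected treated cells, therapeutic index CC50/EC50.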
Background: Protection from cytopathic effect is a common read-out in antiviral testing.

For series [4], the system named is 46I, 84V, 90M virus. In words: Phenotypic susceptibility assay at Virologic, Inc. Format: cell-based, HIV-1. The settings on record: Human immunodeficiency virus 1. The procedure: as §1

Turning to `C/C=C/CNC(=O)[C@H]1N(C(=O)[C@@H](O)[C@H](Cc2ccccc2)NC(=O)c2cccc(O)c2C)CSC1(C)C` [Example A38, (R)-3-((2S,3S)-2-Hydroxy-3-{[1-(3-hydroxy-2-methyl-phenyl)-methanoyl]-amino}-4-phenyl-butanoyl)-5,5-dimethyl-thiazolidine-4-carboxylic acid (E)-but-2-enylamide], the EC50 (usually the concentration at which the effect is half-maximal) turned out to be 401 nM in series [1] and 78 nM in series [3]. In addition, in series [2] (Ave. Ki (nM)), the Ki (in general, the dissociation constant of the complex between target and ligand, obtained from inhibition or displacement) came out at 0.17 nM.
`Cc1ccccc1CNC(=O)[C@H]1N(C(=O)[C@@H](O)[C@H](Cc2ccccc2)NC(=O)N2CC[C@H](O)C2)CSC1(C)C` (stereo in doubt) [Example B8, 3-(2-hydroxy-3-{[1-(3-hydroxy-pyrrolidin-yl)-methanoyl]-amino}-4-phenyl-butanoyl)-5,5-dimethyl-thiazolidine-4-carboxylic acid-2-methyl-benzylamide]: in series [2] (Ave. Ki (nM)), the Ki was 0.31 nM and 1.5 nM. In addition, the IC50 (as a rule, the concentration at which inhibition is half-maximal) in series [4] came out at 405 nM.
With `Cc1ccccc1CNC(=O)[C@H]1N(C(=O)[C@@H](O)[C@H](Cc2ccccc2)NC(=O)c2cccc(O)c2C)COC1(C)C` [Example C6, (S)-3-((2S,3S)-2-Hydroxy-3-{[1-(3-hydroxy-2-methyl-phenyl)-methanoyl]-amino}-4-phenyl-butanoyl)-5,5-dimethyl-oxazolidine-4-carboxylic acid 2-methyl-benzylamide], the EC50 in series [1] came to 1480 nM; in series [3] it was 164 nM. Also, the Ki in series [2] (Ave. Ki (nM)) was < 0.1 nM.
In the same order, the values of `Cc1ccccc1CN(C)C(=O)[C@H]1N(C(=O)[C@@H](O)[C@H](Cc2ccccc2)NC(=O)c2cccc(O)c2C)CSC1(C)C` [Example A7, 3-[2-Hydroxy-3-(3-hydroxy-2-methyl-benzoylamino)-4-phenyl-butyryl]-5,5-dimethyl-thiiazolidine-4-carboxylic acid methyl-(2-methyl-benzyl)-amide] are 832 nM, 104 nM and 0.49 nM.
The corresponding values for `COCCCC(=O)[C@H]1N(C(=O)[C@@H](O)[C@H](Cc2ccccc2)NC(=O)c2cccc(O)c2C)CSC1(C)C` [Example D3, N-{1-Benzyl-2-hydroxy-3-[4-(4-methoxy-butanoyl)-5,5-dimethyl-thiazolidin-3-yl]-3-oxo-propyl}-3-hydroxy-2-methyl-benzamide] are 1950 nM, 162 nM and 0.5 nM.
Take `Cc1ccccc1CNC(=O)[C@H]1N(C(=O)[C@@H](O)[C@H](Cc2ccccc2)NC(=O)c2ccccc2C)CSC1(C)C` [Example B16, 3-[2-Hydroxy-3-(2-methyl-benzoylamino)-4-phenyl-butyryl]-5,5-dimethyl-thiazolidine-4-carboxylic acid 2-methyl-benzylamide]: the figures for the EC50 in series [1] and in series [3] were 1750 nM and 298 nM, respectively. The Ki in series [2] (Ave. Ki (nM)) is < 0.1 nM.
For the compound `C=CCNC(=O)[C@H]1N(C(=O)[C@@H](O)[C@H](Cc2ccccc2)NC(=O)c2cc(C)cc(O)c2C)CSC1(C)C` [Example D4, (R)-3-[(2S, 3S)-2-Hydroxy-3-(3-hydroxy-2,5-dimethyl-benzoylamino)-4-phenyl-butyryl]-5,5-dimethyl-thiazolidine-4-carboxylic acid allylamide], the EC50 worked out at 1950 nM in series [1] and 16 nM in series [3]. For the same compound, in series [2] (read-out: Ave. Ki), the Ki turned out to be 0.7 nM.
On to `CC(C)=CCNC(=O)[C@H]1N(C(=O)[C@@H](O)[C@H](Cc2ccccc2)NC(=O)c2cccc(O)c2C)CSC1(C)C` [Example A32, (R)-3-((2S,3S)-2-Hydroxy-3-{[1-(3-hydroxy-2-methyl-phenyl)-methanoyl]-amino}-4-phenyl-butanoyl)-5,5-dimethyl-thiazolidine-4-carboxylic acid (3-methyl-but-2-enyl)-amide], for which the EC50 in series [1] came to 486 nM; in series [3], 45 nM. In series [2] (Ave. Ki (nM)), the Ki is < 0.1 nM.
Consider `CCCN(C)C(=O)[C@H]1N(C(=O)[C@@H](O)[C@H](Cc2ccccc2)NC(=O)c2cccc(O)c2C)CSC1(C)C` [Example A46, (R)-3-((2S,3S)-2-Hydroxy-3-{[1-(3-hydroxy-2-methyl-phenyl)-methanoyl]-amino}-4-phenyl-butanoyl)-5,5-dimethyl-thiazolidine-4-carboxylic acid methyl-propyl-amide], for which the melting point (usually the temperature, or range, at which the solid turns liquid) lay in the range of 108 to 110 °C. Moreover, the EC50 in series [1] was determined as 790 nM. Besides, in series [2] (Ave. Ki (nM)), affinity was put at a Ki of 0.31 nM. Also, the EC50 in series [3] was determined as 91 nM.
Take `Cc1c(O)cccc1C(=O)N[C@@H](Cc1ccccc1)[C@H](O)C(=O)N1CSC(C)(C)[C@H]1C(=O)NCc1cccc(O)c1` [Example A42, (R)-3-((2S,3S)-2-Hydroxy-3-{[1-(3-hydroxy-2-methyl-phenyl)-methanoyl]-amino}-4-phenyl-butanoyl)-5,5-dimethyl-thiazolidine-4-carboxylic acid 3-hydroxy-benzylamide]: the results for the EC50 in series [1] and in series [3] were 307 nM and 126 nM, respectively. This compound also showed a Ki in series [2] (Ave. Ki (nM)) of 0.23 nM.
The corresponding values for `Cc1ccccc1CNC(=O)C1N(C(=O)C(O)C(Cc2ccccc2)NC(=O)c2cccc(C)c2C)CSC1(C)C` (stereo not drawn) [Example B17, 3-[3-(2,3-Dimethyl-benzoylamino)-2-hydroxy-4-phenyl-butyryl]-5,5-dimethyl-thiazolidine-4-carboxylic acid 2-methyl-benzylamide] are 1580 nM, 534 nM and 0.42 nM.
In the same order, the values of `Cc1ccccc1CNC(=O)C1N(C(=O)C(O)C(Cc2ccccc2)NC(=O)c2c(C)c(=O)on2C)CSC1(C)C` (stereo not drawn) [Example B19, 2,4-Dimethyl-5-oxo-2,5-dihydro-isoxazole-3-carboxylic acid {1-benzyl-3-[5,5-dimethyl-4-(2-methyl-benzylcarbamoyl)-thiazolidin-3-yl]-2-hydroxy-3-oxo-propyl}-amide] are 1370 nM, 124 nM and < 0.1 nM.
In the same order, the values of `Cc1c(O)cccc1C(=O)N[C@@H](Cc1ccccc1)[C@H](O)C(=O)N1CSC(C)(C)[C@H]1C(=O)NCc1ccccc1O` [Example A44, (R)-3-((2S,3S)-2-Hydroxy-3-{[1-(3-hydroxy-2-methyl-phenyl)-methanoyl]-amino}-4-phenyl-butanoyl)-5,5-dimethyl-thiazolidine-4-carboxylic acid 2-hydroxy-benzylamide] are 472 nM, 22 nM and 0.14 nM.
In the case of `Cc1c(O)cccc1C(=O)N[C@@H](Cc1ccccc1)[C@H](O)C(=O)N1CSC(C)(C)[C@H]1C(=O)NCc1c(F)cccc1C(F)(F)F` [Example A24, (R)-3-((2S,3S)-2-Hydroxy-3-{[1-(3-hydroxy-2-methyl-phenyl)-methanoyl]-amino}-4-phenyl-butanoyl)-5,5-dimethyl-thiazolidine-4-carboxylic acid fluoro-trifluoromethyl-benzylamide], the EC50 is 831 nM in series [1] and 104 nM in series [3]. The compound also came in with a Ki in series [2] (Ave. Ki (nM)) of 0.18 nM.
Turning to `C/C=C(\C)CNC(=O)[C@H]1N(C(=O)[C@@H](O)[C@H](Cc2ccccc2)NC(=O)c2cccc(O)c2C)CSC1(C)C` [Example A35, (R)-3-((2S,3S)-2-Hydroxy-3-{[1-(3-hydroxy-2-methyl-phenyl)-methanoyl]-amino}-4-phenyl-butanoyl)-5,5-dimethyl-thiazolidine-4-carboxylic acid ((E)-2-methyl-but-2-enyl)-amide], the EC50 in series [1] came to 63 nM; in series [3], 17 nM. Further, the Ki in series [2] (Ave. Ki (nM)) was < 0.1 nM.
